≈ marks a conversion by molar mass, not a printed value.

This is an account of results in patent publication US10471046B2, “Method for treating, preventing, or reducing the risk of skin infection” (Melinta Subsidiary Corp., priority 2014, dated 2019).

The test system of this test is S. aureus. The test can be described thus: Minimum inhibitory concentrations (MICs) for S. aureus of exemplary compounds (Table 2). Type of test: cell-based. To be noted: Staphylococcus aureus, minimum inhibitory concentrations for S. aureus; read-out: MICs. In outline: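 MICs (μg/mL) against S. aureus come from microtiter-tray dilution susceptibility testing per NCCLS M7-A5, comparing growth with and without compound.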
Consider `CO/N=C(\CNCc1cnoc1)c1ccc(-c2ccc(N3C[C@H](CNC(C)=O)OC3=O)cc2F)cc1` [Compound 4254, N-[3-(2-Fluoro-4′-{2-[(isoxazol-4-ylmethyl)-amino]-1-methoxyimino-ethyl}-biphenyl-4-yl)-2-oxo-oxazolidin-5-(S)-ylmethyl]-acetamide], for which the MIC came out at 2 µg/mL (≈ 4.04 µM).

`CO/N=C(\CNCc1cocn1)c1ccc(-c2ccc(N3C[C@H](CNC(C)=O)OC3=O)cc2F)cc1` [Compound 4255, N-[3-(2-Fluoro-4′-{1-methoxyimino-2-[(oxazol-4-ylmethyl)-amino]-ethyl}-biphenyl-4-yl)-2-oxo-oxazolidin-5-(S)-ylmethyl]-acetamide]: the MIC was 2 µg/mL (≈ 4.04 µM). The value for `CC(=O)NC[C@H]1CN(c2ccc(-c3ccc(CNCCCc4cn(Cc5ccccc5)nn4)cc3)c(F)c2)C(=O)O1` [Compound 4256, N-[3-(4′-{[3-(1-Benzyl-1H-[1,2,3]triazol-4-yl)-propylamino]-methyl}-2-fluoro-biphenyl-4-yl)-2-oxo-oxazolidin-5-(S)-ylmethyl]-acetamide] was 4 µg/mL (≈ 7.19 µM); that for `CC(=O)NC[C@H]1CN(c2ccc(-c3ccc(CNCc4cccnc4F)cc3)c(F)c2)C(=O)O1` [Compound 4257, N-[3-(2-Fluoro-4′-{[(2-fluoro-pyridin-3-ylmethyl)-amino]-methyl}-biphenyl-4-yl)-2-oxo-oxazolidin-5-(S)-ylmethyl]-acetamide] was 0.5 µg/mL (≈ 1.07 µM); that for `CC(=O)NC[C@H]1CN(c2ccc(-c3ccc(CNCCCc4cnn[nH]4)cc3)c(F)c2)C(=O)O1` [Compound 4258, N-[3-(2-Fluoro-4′-{[3-(3H-[1,2,3]triazol-4-yl)-propylamino]-methyl}-biphenyl-4-yl)-2-oxo-oxazolidin-5-(S)-ylmethyl]-acetamide] was 4 µg/mL (≈ 8.57 µM). With `CC(=O)NC[C@H]1CN(c2ccc(-c3ccc(CNCCN4CCCC4)cc3)c(F)c2)C(=O)O1` [Compound 4259, N-(3-{2-Fluoro-4′-[(2-pyrrolidin-1-yl-ethylamino)-methyl]-biphenyl-4-yl}-2-oxo-oxazolidin-5-(S)-ylmethyl)-acetamide], the MIC came out at 4 µg/mL (≈ 8.8 µM).

As for `CC(=O)NC[C@H]1CN(c2ccc(-c3ccc(CNCCn4ccnn4)cc3)c(F)c2)C(=O)O1` [Compound 4262, N-(3-{2-Fluoro-4′-[(2-[1,2,3]triazol-1-yl-ethylamino)-methyl]-biphenyl-4-yl}-2-oxo-oxazolidin-5-(S)-ylmethyl)-acetamide], the MIC stood at 2 µg/mL (≈ 4.42 µM). `CC(=O)NC[C@H]1CN(c2ccc(-c3ccc(CNOCc4ccccc4)cc3)c(F)c2)C(=O)O1` [Compound 4263, N-{3-[4′-(Benzyloxyamino-methyl)-2-fluoro-biphenyl-4-yl]-2-oxo-oxazolidin-5-(S)-ylmethyl}-acetamide]: the MIC was determined as 2 µg/mL (≈ 4.31 µM).

Regarding `CC(=O)NC[C@H]1CN(c2ccc(-c3ccc(CNCCCn4ccnn4)cc3)c(F)c2)C(=O)O1` [Compound 4264, N-(3-{2-Fluoro-4′-[(3-[1,2,3]triazol-1-yl-propylamino)-methyl]-biphenyl-4-yl}-2-oxo-oxazolidin-5-(S)-ylmethyl)-acetamide], the MIC is 4 µg/mL (≈ 8.57 µM). Take `CC(=O)NC[C@H]1CN(c2ccc(-c3ccc(CN(CCCF)OCc4ccccc4)cc3)c(F)c2)C(=O)O1` [Compound 4265, N-[3-(4′-{[Benzyloxy-(3-fluoro-propyl)-amino]-methyl}-2-fluoro-biphenyl-4-yl)-2-oxo-oxazolidin-5-(S)-ylmethyl]-acetamide]: the MIC was 4 µg/mL (≈ 7.64 µM). Then `CC(=O)NC[C@H]1CN(c2ccc(-c3ccc(CNCCc4cnn[nH]4)cc3)c(F)c2)C(=O)O1` [Compound 4266, N-[3-(2-Fluoro-4′-{[2-(3H-[1,2,3]triazol-4-yl)-ethylamino]-methyl}-biphenyl-4-yl)-2-oxo-oxazolidin-5-(S)-ylmethyl]-acetamide], with 4 µg/mL (≈ 8.84 µM); and `CC(=O)NC[C@H]1CN(c2ccc(-c3ccc(CNCc4cnn[nH]4)cc3)c(F)c2)C(=O)O1` [Compound 4267, N-[3-(2-Fluoro-4′-{[(3H-[1,2,3]triazol-4-ylmethyl)-amino]-methyl}-biphenyl-4-yl)-2-oxo-oxazolidin-5-(S)-ylmethyl]-acetamide], with 0.25 µg/mL (≈ 0.57 µM).

Turning to `O=C1O[C@@H](Cn2ccnn2)CN1c1ccc(-c2ccc(CNCc3cnn[nH]3)cc2)c(F)c1` [Compound 4268, 3-(2-Fluoro-4′-{[(3H-[1,2,3]triazol-4-ylmethyl)-amino]-methyl}-biphenyl-4-yl)-5-(R)-[1,2,3]triazol-1-ylmethyl-oxazolidin-2-one], the MIC was 0.25 µg/mL (≈ 0.557 µM). Take `CC(=O)NC[C@H]1CN(c2ccc(-c3ccc(CNCc4[nH]nnc4C)cc3)c(F)c2)C(=O)O1` [Compound 4269, N-[3-(2-Fluoro-4′-{[(5-methyl-3H-[1,2,3]triazol-4-ylmethyl)-amino]-methyl}-biphenyl-4-yl)-2-oxo-oxazolidin-5-(S)-ylmethyl]-acetamide]: the MIC was determined as 2 µg/mL (≈ 4.42 µM). Consider `CC(=O)NC[C@H]1CN(c2ccc(-c3ccc(CN(Cc4[nH]nnc4C)Cc4[nH]nnc4C)cc3)c(F)c2)C(=O)O1` [Compound 4270, N-[3-(4′-{[Bis-(5-methyl-3H-[1,2,3]triazol-4-ylmethyl)-amino]-methyl}-2-fluoro-biphenyl-4-yl)-2-oxo-oxazolidin-5-(S)-ylmethyl]-acetamide], for which the MIC was found to be 4 µg/mL (≈ 7.3 µM).

Turning to `CC(=O)NC[C@H]1CN(c2ccc(-c3ccc(CNNC(=O)c4snnc4C)cc3)c(F)c2)C(=O)O1` [Compound 4271, N-(3-{2-Fluoro-4′-[N′-(4-methyl-[1,2,3]thiadiazole-carbonyl)-hydrazinomethyl]-biphenyl-4-yl}-2-oxo-oxazolidin-5-(S)-ylmethyl)-acetamide], the MIC is 0.25 µg/mL (≈ 0.501 µM). Take `CC(=O)NC[C@H]1CN(c2ccc(-c3ccc(CNCc4cnnn4C)cc3)c(F)c2)C(=O)O1` [Compound 4272, N-[3-(2-Fluoro-4′-{[(3-methyl-3H-[1,2,3]triazol-4-ylmethyl)-amino]-methyl}-biphenyl-4-yl)-2-oxo-oxazolidin-5-(S)-ylmethyl]-acetamide]: the MIC was 0.25 µg/mL (≈ 0.552 µM). For `CC(=O)NC[C@H]1CN(c2ccc(-c3ccc(CNCC(CF)n4ccnn4)cc3)c(F)c2)C(=O)O1` (stereo partly drawn) [Compound 4274, N-(3-{2-Fluoro-4′-[(3-fluoro-2-[1,2,3]triazol-1-yl-propylamino)-methyl]-biphenyl-4-yl}-2-oxo-oxazolidin-5-(S)-ylmethyl)-acetamide], the MIC stood at 2 µg/mL (≈ 4.13 µM). Turning to `CC(=O)NC[C@H]1CN(c2ccc(-c3ccc(CN(C)Cc4cnn[nH]4)cc3)c(F)c2)C(=O)O1` [Compound 4276, N-[3-(2-Fluoro-4′-{[methyl-(3H-[1,2,3]triazol-4-ylmethyl)-amino]-methyl}-biphenyl-4-yl)-2-oxo-oxazolidin-5-(S)-ylmethyl]-acetamide], the MIC amounted to 0.25 µg/mL (≈ 0.552 µM). For `CC(=O)NC[C@H]1CN(c2ccc(-c3ccc(CNCc4cnn[nH]4)nc3)c(F)c2)C(=O)O1` [Compound 4277, N-{3-[3-Fluoro-4-(6-{[(3H-[1,2,3]triazol-4-ylmethyl)-amino]-methyl}-pyridin-3-yl)-phenyl]-2-oxo-oxazolidin-5-(S)-ylmethyl}-acetamide], the MIC is 4 µg/mL (≈ 9.1 µM). With `CC(=O)NC[C@H]1CN(c2ccc(-c3ccc(CN(Cc4nnnn4C)C(=O)OC(C)(C)C)cc3)c(F)c2)C(=O)O1` [Compound 4280, {4′-[5-(S)-(Acetylamino-methyl)-2-oxo-oxazolidin-3-yl]-2′-fluorobiphenyl-4-ylmethyl}-(1-methyl-1H-tetrazol-5-ylmethyl)-carbamic acid tert-butyl ester], the MIC amounted to 1 µg/mL (≈ 1.81 µM).
